Where a name gives a salt, the structure may show the parent alone. Read-outs that look alike come from different tables or passages of the source.
How the values were obtained:
[1] = test system: OXA-232 producing Klebsiella pneumoniae; experiment: Broth-microdilution MIC (CLSI M07-A11) against clinical isolates; format: cell-based; design: Drug concentration: unit: mg/L; conditions: for MIC50 / MIC90: Klebsiella pneumoniae; for Mode: mode of MIC; for Drug concentration: unit not given in Table 3
Text: (§1) As recommended by CLSI (Clinical and Laboratory Standards Institute) M07-A11 (2018 edition), the Broth-microdilution method is adopted to determine the minimum inhibitory concentration (MIC) of ceftobiprole and zidebactam against clinical isolates. It should be noted that, in the present disclosure, MIC50 refers to the minimum drug concentration that inhibits the growth of 50% of the tested bacteria, and MIC90 refers to the minimum drug concentration that inhibits the growth of 90% of the tested bacteria.
(§2) Antibacterial drug: ceftobiprole, manufacturer: Shenyang Sanjiu Pharmaceutical, content: 92.1%, batch number: YF/BALP141/000. Zidebactam, manufacturer: Target M01 company, batch number: 149661. Zidebactam, as described above, the English name is Zidebactam, and the chemical name is: (2S,5R)-7-oxo-2-(2-((R)-piperidine-3-carbonyl)hydrazine-1-carbonyl)-1,6-diazabicyclo[3.2.1]octan-6-yl hydrogen sulfate.
(§3) Tested strains: a total of 24 genotypic strains producing KPC or OXA β-lactamase. Specifically, the tested strains include 24 strains of Klebsiella pneumoniae, including 12 KPC-2 producing strains and 12 OXA-232 producing strains.
(§4) Quality control strains: Escherichia coli ATCC 25922, (KPC-2 producing) Klebsiella pneumoniae ATCC BAA-1705, and (NDM-1 producing) Klebsiella pneumoniae ATCC BAA-2146.
(§5) Medium: cation-adjusted Mueller-Hinton broth (CAMHB), a product of BBL Company, USA.
(§6) Inoculum size: Pure isolated colonies were adjusted with normal saline to 0.5 McFarland turbidity. After appropriate dilution, the suspension was added to the wells of a 96-well U-bottom microplate (containing 50 µL antibacterial drug solution). The inoculum size was 5 × 10^5 CFU/mL.
(§7) Culture conditions: air environment, 35°C ± 2°C, 16 to 20 hours.
(§8) Preparation of Antibacterial Drug Solution : Ceftobiprole and zidebactam were taken separately, dissolution and dilution were performed according to the antibacterial drug reference to the CLSI standards and the drug package insert, A1 to A6, a total of 6 groups of antibacterial drug solutions, were prepared, among which, group A1 was the control group containing solely the single agent ceftobiprole, and group A2 was the control group containing solely the single agent zidebactam. Different antibacterial drug solutions with ceftobiprole concentrations ranging from 128 mg/L to 0.06 mg/L were respectively included in groups A1 and A3 to A6, and different antibacterial drug solutions with zidebactam concentrations ranging from 128 mg/L to 0.06 mg/L were included in group A2. The specific concentrations within the range of 128 mg/L to 0.06 mg/L in groups A1 to A6 were respectively 128 mg/L, 64 mg/L, 32 mg/L, 16 mg/L, 8 mg/L, 4 mg/L, 2 mg/L, 1 mg/L, 0.5 mg/L, 0.25 mg/L, 0.125 mg/L, or 0.06 mg/L, respectively. Table 1. Concentrations of ceftobiprole/zidebactam contained in the antibacterial drug solutions of groups A1 to A6
(§9) Experimental results: Currently, there are no established CLSI or EUCAST breakpoints for ceftobiprole/β-lactamase inhibitor. Therefore, the antibacterial activity of ceftobiprole/β-lactamase inhibitor is evaluated in accordance with the standards for ceftobiprole. WHONET 5.6 software is used to perform statistical analysis on the results of antibacterial susceptibility test. The fractional inhibitory concentration index (FIC) for the combination of ceftobiprole and zidebactam is calculated according to Equation (1). FIC index = (MIC of drug A in combination)/(MIC of drug A alone) + (MIC of drug B in combination)/(MIC of drug B alone) [formula]
(§10) In Equation (1), drug A is ceftobiprole, and drug B is zidebactam. […] Table 2. In vitro antibacterial activity of ceftobiprole/zidebactam against the tested bacteria in Example 1 […]

[2] = test system: KPC-2 producing Klebsiella pneumoniae; experiment: as above; format: cell-based; design: Drug concentration: unit: mg/L; conditions: for Mode: mode of MIC; for Drug concentration: unit not given in Table 3
Text: as §1, §2, §3, §4, §5, §6, §7, §8, §9, §10

[3] = 12 strains, MIC = ceftobiprole concentration (groups A2, B2, C2, D2, E2: inhibitor alone)
[4] = strain 20-W4-001 (kpn, OXA-232)
[5] = strain 20-W4-002 (kpn, OXA-232)
[6] = strain 20-W4-003 (kpn, OXA-232)
[7] = strain 20-W4-004 (kpn, OXA-232)
[8] = strain 20-W4-005 (kpn, OXA-232)
[9] = strain 20-W4-007 (kpn, OXA-232)
[10] = strain 20-W4-008 (kpn, OXA-232)
[11] = strain 20-W4-009 (kpn, OXA-232)
[12] = strain 20-W4-010 (kpn, OXA-232)
[13] = strain 20-W4-011 (kpn, OXA-232)
[14] = strain 20-W4-012 (kpn, OXA-232)
[15] = strain 20-W4-013 (kpn, OXA-232)
[16] = 12 strains, MIC = ceftobiprole concentration (groups A2, B2, C2, D2, E2: inhibitor alone), listed as Group Al
[17] = Klebsiella pneumoniae, 12 strains, MIC = ceftobiprole concentration (groups A2, B2, C2, D2, E2: inhibitor alone), read-out: MIC50
[18] = Klebsiella pneumoniae, 12 strains, MIC = ceftobiprole concentration (groups A2, B2, C2, D2, E2: inhibitor alone), read-out: MIC90

Nc1nc(/C(=N/O)C(=O)N[C@@H]2C(=O)N3C(C(=O)O)=C(/C=C4\CCN([C@@H]5CCNC5)C4=O)CS[C@H]23)ns1 [Group A1, (6R,7R)-7-((Z)-2-(5-amino-1,2,4-thiadiazol-3-yl)-2-(hydroxyimino)acetamido)-8-oxo-3-((E)-((R)-2-oxo-[1,3'-bipyrrolidin]-3-ylidene)methyl)-5-thia-1-azabicyclo[4.2.0]oct-2-ene-2-carboxylic acid]
MIC range [1, 3]: >128 µg/mL | MIC50 [1, 3]: ≥ 128 µg/mL | MIC90 [1, 3]: ≥ 128 µg/mL | Cumulative inhibition rate (%) ([1]; MIC >128 mg/L): 100% | Cumulative number of strains ([1]; MIC >128 mg/L): 12 | Number of strains ([1]; MIC >128 mg/L): 12 | Mode ([1]; 12 strains): >128 mg/L | Drug concentration [1, 4]: >128 | Drug concentration [1, 5]: >128 | Drug concentration [1, 6]: >128 | Drug concentration [1, 7]: >128 | Drug concentration [1, 8]: >128 | Drug concentration [1, 9]: >128 | Drug concentration [1, 10]: >128 | Drug concentration [1, 11]: >128 | Drug concentration [1, 12]: >128 | Drug concentration [1, 13]: >128 | Drug concentration [1, 14]: >128 | Drug concentration [1, 15]: >128 | antibacterial activity ([1]; verdict in words): no antibacterial activity | MIC range [2, 3]: >128 µg/mL | MIC50 [2, 16]: >128 µg/mL | MIC90 [2, 16]: >128 µg/mL | MIC50 [2, 17]: ≥ 128 µg/mL | MIC90 [2, 18]: ≥ 128 µg/mL | Cumulative inhibition rate (%) ([2]; MIC >128 mg/L): 100% | Cumulative number of strains ([2]; MIC >128 mg/L): 12 | Number of strains ([2]; MIC >128 mg/L): 12 | Mode ([2]; 12 strains): >128 mg/L | Drug concentration ([2]; strain 18-W09-043 (kpn, KPC-2)): >128 | Drug concentration ([2]; strain 18-W09-045 (kpn, KPC-2)): >128 | Drug concentration ([2]; strain 18-W09-046 (kpn, KPC-2)): >128 | Drug concentration ([2]; strain 18-W09-047 (kpn, KPC-2)): >128 | Drug concentration ([2]; strain 18-W09-049 (kpn, KPC-2)): >128 | Drug concentration ([2]; strain 18-W09-050 (kpn, KPC-2)): >128 | Drug concentration ([2]; strain 18-W09-051 (kpn, KPC-2)): >128 | Drug concentration ([2]; strain 18-W13-043 (kpn, KPC-2)): >128 | Drug concentration ([2]; strain 18-W13-044 (kpn, KPC-2)): >128 | Drug concentration ([2]; strain 18-W13-045 (kpn, KPC-2)): >128 | Drug concentration ([2]; strain 18-W13-046 (kpn, KPC-2)): >128 | Drug concentration ([2]; strain 18-W13-047 (kpn, KPC-2)): >128 | antibacterial activity ([2]; verdict in words): no antibacterial activity

O=C(NNC(=O)[C@@H]1CC[C@@H]2CN1C(=O)N2OS(=O)(=O)O)[C@@H]1CCCNC1 [Group A2, (2S,5R)-7-oxo-2-(2-((R)-piperidine-3-carbonyl)hydrazine-1-carbonyl)-1,6-diazabicyclo[3.2.1]octan-6-yl hydrogen sulfate]
MIC50 [1, 3]: 64 µg/mL | MIC90 [1, 3]: > 128 µg/mL | Cumulative inhibition rate (%) ([1]; MIC 1 mg/L): 8.3% | Cumulative number of strains ([1]; MIC 1 mg/L): 1 | Number of strains ([1]; MIC 1 mg/L): 1 | Cumulative inhibition rate (%) ([1]; MIC 2 mg/L): 16.7% | Cumulative number of strains ([1]; MIC 2 mg/L): 2 | Number of strains ([1]; MIC 2 mg/L): 1 | Cumulative inhibition rate (%) ([1]; MIC 4 mg/L): 33.3% | Cumulative number of strains ([1]; MIC 4 mg/L): 4 | Number of strains ([1]; MIC 4 mg/L): 2 | Cumulative inhibition rate (%) ([1]; MIC 8 mg/L): 41.7% | Cumulative number of strains ([1]; MIC 8 mg/L): 5 | Number of strains ([1]; MIC 8 mg/L): 1 | Cumulative inhibition rate (%) ([1]; MIC 64 mg/L): 50% | Cumulative number of strains ([1]; MIC 64 mg/L): 6 | Number of strains ([1]; MIC 64 mg/L): 1 | Cumulative inhibition rate (%) ([1]; MIC 128 mg/L): 66.7% | Cumulative number of strains ([1]; MIC 128 mg/L): 8 | Number of strains ([1]; MIC 128 mg/L): 2 | Cumulative inhibition rate (%) ([1]; MIC >128 mg/L): 100% | Cumulative number of strains ([1]; MIC >128 mg/L): 12 | Number of strains ([1]; MIC >128 mg/L): 4 | Mode ([1]; 12 strains): >128 mg/L | Drug concentration [1, 4]: >128 | Drug concentration [1, 5]: >128 | Drug concentration [1, 6]: 4 | Drug concentration [1, 7]: >128 | Drug concentration [1, 8]: 128 | Drug concentration [1, 9]: 2 | Drug concentration [1, 10]: 64 | Drug concentration [1, 11]: 128 | Drug concentration [1, 12]: 1 | Drug concentration [1, 13]: 8 | Drug concentration [1, 14]: >128 | Drug concentration [1, 15]: 4 | MIC50 [2, 17]: > 128 µg/mL | MIC90 [2, 18]: > 128 µg/mL | Cumulative inhibition rate (%) ([2]; MIC 1 mg/L): 8.3% | Cumulative number of strains ([2]; MIC 1 mg/L): 1 | Number of strains ([2]; MIC 1 mg/L): 1 | Cumulative inhibition rate (%) ([2]; MIC 128 mg/L): 41.7% | Cumulative number of strains ([2]; MIC 128 mg/L): 5 | Number of strains ([2]; MIC 128 mg/L): 4 | Cumulative inhibition rate (%) ([2]; MIC >128 mg/L): 100% | Cumulative number of strains ([2]; MIC >128 mg/L): 12 | Number of strains ([2]; MIC >128 mg/L): 7 | Mode ([2]; 12 strains): >128 mg/L | Drug concentration ([2]; strain 18-W09-043 (kpn, KPC-2)): >128 | Drug concentration ([2]; strain 18-W09-045 (kpn, KPC-2)): >128 | Drug concentration ([2]; strain 18-W09-046 (kpn, KPC-2)): 128 | Drug concentration ([2]; strain 18-W09-047 (kpn, KPC-2)): 128 | Drug concentration ([2]; strain 18-W09-049 (kpn, KPC-2)): >128 | Drug concentration ([2]; strain 18-W09-050 (kpn, KPC-2)): 128 | Drug concentration ([2]; strain 18-W09-051 (kpn, KPC-2)): >128 | Drug concentration ([2]; strain 18-W13-043 (kpn, KPC-2)): >128 | Drug concentration ([2]; strain 18-W13-044 (kpn, KPC-2)): >128 | Drug concentration ([2]; strain 18-W13-045 (kpn, KPC-2)): 128 | Drug concentration ([2]; strain 18-W13-046 (kpn, KPC-2)): >128 | Drug concentration ([2]; strain 18-W13-047 (kpn, KPC-2)): 1
